# Test results published in patent US10933056B2, “3-(1H-pyrazol-4-yl)pyridine allosteric modulators of the M4 muscarinic acetylcholine receptor” (Merck Sharp & Dohme Corp., priority 2015, dated 2021).
# Molecular target: T1, human M4 muscarinic acetylcholine receptor (Homo sapiens, UniProt P08173)
# T1 construct: expressed in transfected cells; host or cells: CHO-K1
# T1 sequence (P08173 1-479): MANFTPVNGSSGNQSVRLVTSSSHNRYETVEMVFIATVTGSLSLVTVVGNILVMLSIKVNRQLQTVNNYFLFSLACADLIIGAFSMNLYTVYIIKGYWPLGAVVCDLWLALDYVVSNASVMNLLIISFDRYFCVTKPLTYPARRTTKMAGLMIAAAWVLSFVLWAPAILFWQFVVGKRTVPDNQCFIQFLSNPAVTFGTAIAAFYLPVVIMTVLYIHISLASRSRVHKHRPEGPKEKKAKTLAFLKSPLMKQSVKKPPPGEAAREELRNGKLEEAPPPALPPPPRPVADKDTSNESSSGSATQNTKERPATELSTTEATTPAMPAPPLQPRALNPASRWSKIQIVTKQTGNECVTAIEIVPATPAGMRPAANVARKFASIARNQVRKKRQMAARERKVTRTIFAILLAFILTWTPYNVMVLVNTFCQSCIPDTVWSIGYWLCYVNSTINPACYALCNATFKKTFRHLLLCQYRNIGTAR
# Assay: human FLIPR-based M4 PAM assay (calcium mobilization in CHO-K1 cells with human M4 receptor and Gαqi5)
# Assay type: cell-based
# Conditions: inflection point of dose response curve, acetylcholine at 20% of maximum response, FLIPR Tetra, read-out: M4 PAM IP
# Procedure: (§1) In a typical experiment the M4 muscarinic acetylcholine receptor modulating activity of the compounds of the present invention was determined in accordance with the following experimental method. CHO-K1 cells stably transfected with human M4 receptor and chimeric G-protein Gαqi5 (Coward P, et al., Analytical Biochemistry, 270:242-248 (1999)) are thawed from liquid N2 storage, resuspended in growth medium, plated in black, clear bottom 384 well plates, and incubated 16-20 hours at 37° C., 5% CO2. On the day of assay, growth medium is removed, the cells are washed 2 times with wash buffer, and cells are incubated in dye loading buffer at 37° C., 5% CO2 for ˜1 hour. Following dye loading the cell plates are placed in a FLIPR Tetra instrument and while monitoring dye fluorescence (excitation […]), 10 uL of test substance at increasing concentrations is added, and fluorescence values are recorded for 4 min. Next, 10 uL of acetylcholine is added (final concentration calculated so as to achieve 20% of the maximum acetycholine response), and the fluorescence reading is continued for 3.5 min. In some cases, a third addition of acetylcholine (final concentration calculated to achieve 70% of the maximal acetylcholine response) is performed. The resulting dose response curves are fit to a 4 parameter logistic equation and the final result is determined as the inflection point (IP) of the curve
# as §1, with “CHO-K1” for “In a typical experiment the M4 muscarinic acetylcholine receptor modulating activity of the compounds of the present invention was determined in accordance with the following experimental method. CHO-K1”, “Gαqi5” for “Gαqi5 (Coward P, et al., Analytical Biochemistry, 270:242-248 (1999))”, “performed.” for “performed. The resulting dose response curves are fit to a 4 parameter logistic equation and the final result is determined as the inflection point (IP) of the curve”
row,Compound,EC50
1,"CNC(=O)c1ccc(-c2cnn(CC3CCCC3)c2)c(-c2ccc3c(c2)C(=O)N(C2CC2)C3)n1 [Example 13, 5-(1-(cyclopentylmethyl)-1H-pyrazol-4-yl)-6-(2-cyclopropyl-3-oxoisoindolin-5-yl)-N-methylpicolinamide]",613 nM
2,"CNC(=O)c1ccc(-c2cnn(CC3CCCC3)c2)c(-c2ccc3c(c2)C(=O)N(C)C3)n1 [Example 14, 5-(1-(cyclopentylmethyl)-1H-pyrazol-4-yl)-N-methyl-6-(2-methyl-3-oxoisoindolin-5-yl)picolinamide]",687 nM
3,"NC(=O)c1ccc(-c2cnn(CC3CCCC3)c2)c(-c2ccc3c(c2)C(=O)N(CC2CC2)C3)n1 [Example 15, 5-(1-(cyclopentylmethyl)-1H-pyrazol-4-yl)-6-(2-(cyclopropylmethyl)-3-oxoisoindolin-5-yl)picolinamide]",94 nM
4,"NC(=O)c1ccc(-c2cnn(CC3CCCC3)c2)c(-c2ccc3c(c2)C(=O)N(C2CC2)C3)n1 [Example 16, 5-(1-(cyclopentylmethyl)-1H-pyrazol-4-yl)-6-(2-cyclopropyl-3-oxoisoindolin-5-yl)picolinamide]",297 nM
5,"CN1Cc2ccc(-c3nc(C(N)=O)ccc3-c3cnn(CC4CCCC4)c3)cc2C1=O [Example 17, 5-(1-(cyclopentylmethyl)-1H-pyrazol-4-yl)-6-(2-methyl-3-oxoisoindolin-5-yl)picolinamide]",278 nM
6,"N#Cc1ccc(-c2cnn(CC3CCCC3)c2)c(-c2ccc3c(c2)C(=O)N(CC2CC2)C3)n1 [Example 18, 5-(1-(cyclopentylmethyl)-1H-pyrazol-4-yl)-6-(2-(cyclopropylmethyl)-3-oxoisoindolin-5-yl)picolinonitrile]",8 nM
7,"N#Cc1ccc(-c2cnn(CC3CCCC3)c2)c(-c2ccc3c(c2)C(=O)N(C2CC2)C3)n1 [Example 19, 5-(1-(cyclopentylmethyl)-1H-pyrazol-4-yl)-6-(2-cyclopropyl-3-oxoisoindolin-5-yl)picolinonitrile]",9 nM
8,"N#Cc1ccc(-c2cnn(CC3CCCC3)c2)c(-c2ccc3c(c2)C(=O)NC3)n1 [Example 20, 5-(1-(cyclopentylmethyl)-1H-pyrazol-4-yl)-6-(3-oxoisoindolin-5-yl)picolinonitrile]",9 nM
9,"O=C1c2cc(-c3nc(F)ccc3-c3cnn(CC4CCCC4)c3)ccc2CN1CC1CC1 [Example 21, 6-(3-(1-(cyclopentylmethyl)-1H-pyrazol-4-yl)-6-fluoropyridin-2-yl)-2-(cyclopropylmethyl)isoindolin-1-one]",22 nM
10,"CN1Cc2ccc(-c3nc(F)ccc3-c3cnn(CC4CCCC4)c3)cc2C1=O [Example 22, 6-(3-(1-(cyclopentylmethyl)-1H-pyrazol-4-yl)-6-fluoropyridin-2-yl)-2-methylisoindolin-1-one]",28 nM
11,"O=C1c2cc(-c3nc(F)ccc3-c3cnn(CC4CCCC4)c3)ccc2CN1C1CC1 [Example 23, 6-(3-(1-(cyclopentylmethyl)-1H-pyrazol-4-yl)-6-fluoropyridin-2-yl)-2-cyclopropylisoindolin-1-one]",34 nM
12,"CC1(Cn2cc(-c3cccnc3-c3ccc4c(c3)C(=O)NC4)cn2)CCCC1 [Example 24, 6-(3-(1-((1-methylcyclopentyl)methyl)-1H-pyrazol-4-yl)pyridin-2-yl)isoindolin-1-one]",20 nM
13,"CN1Cc2ccc(-c3ncccc3-c3cnn(CC4(C)CCCC4)c3)cc2C1=O [Example 25, 2-methyl-6-(3-(1-((1-methylcyclopentyl)methyl)-1H-pyrazol-4-yl)pyridin-2-yl)isoindolin-1-one]",21 nM
14,"CC1(Cn2cc(-c3cccnc3-c3ccc4c(c3)C(=O)N(C3CC3)C4)cn2)CCCC1 [Example 26, 2-cyclopropyl-6-(3-(1-((1-methylcyclopentyl)methyl)-1H-pyrazol-4-yl)pyridin-2-yl)isoindolin-1-one]",32 nM

# Next, values leading:
row,EC50,Compound
1,11 nM,"Cc1ccc(-c2cnn(CC3(C)CCCC3)c2)c(-c2ccc3c(c2)C(=O)N(C)C3)n1 [Example 27, 2-methyl-6-(6-methyl-3-(1-((1-methylcyclopentyl)methyl)-1H-pyrazol-4-yl)pyridin-2-yl)isoindolin-1-one]"
2,10 nM,"Cc1ccc(-c2cnn(CC3(C)CCCC3)c2)c(-c2ccc3c(c2)C(=O)N(C2CC2)C3)n1 [Example 28, 2-cyclopropyl-6-(6-methyl-3-(1-((1-methylcyclopentyl)methyl)-1H-pyrazol-4-yl)pyridin-2-yl)isoindolin-1-one]"
3,13 nM,"CC1(Cn2cc(-c3c(F)ccnc3-c3ccc4c(c3)C(=O)N(CC3CC3)C4)cn2)CCCC1 [Example 29, 2-(cyclopropylmethyl)-6-(4-fluoro-3-(1-((1-methylcyclopentyl)methyl)-1H-pyrazol-4-yl)pyridin-2-yl)isoindolin-1-one]"
4,18 nM,"Cc1ccc(-c2cnn(CC3(C)CCCC3)c2F)c(-c2ccc3c(c2)C(=O)N(CC2CC2)C3)n1 [Example 30, 2-(cyclopropylmethyl)-6-(3-(5-fluoro-1-((1-methylcyclopentyl)methyl)-1H-pyrazol-4-yl)-6-methylpyridin-2-yl)isoindolin-1-one]"
5,74 nM,"CN1Cc2ccc(-c3nccc(C#N)c3-c3cnn(CC4(C)CCCC4)c3)cc2C1=O [Example 31, 2-(2-methyl-3-oxoisoindolin-5-yl)-3-(1-((1-methylcyclopentyl)methyl)-1H-pyrazol-4-yl)isonicotinonitrile]"
6,7 nM,"CC1(Cn2cc(-c3ccc(C#N)nc3-c3ccc4c(c3)C(=O)N(CC3CC3)C4)cn2)CCCC1 [Example 32, 6-(2-(cyclopropylmethyl)-3-oxoisoindolin-5-yl)-5-(1-((1-methylcyclopentyl)methyl)-1H-pyrazol-4-yl)picolinonitrile]"
7,7 nM,"CC1(Cn2cc(-c3ccc(C#N)nc3-c3ccc4c(c3)C(=O)N(C3CC3)C4)cn2)CCCC1 [Example 33, 6-(2-cyclopropyl-3-oxoisoindolin-5-yl)-5-(1-((1-methylcyclopentyl)methyl)-1H-pyrazol-4-yl)picolinonitrile]"
8,15 nM,"CC1(Cn2cc(-c3ccc(C#N)nc3-c3ccc4c(c3)C(=O)NC4)cn2)CCCC1 [Example 34, 5-(1-((1-methylcyclopentyl)methyl)-1H-pyrazol-4-yl)-6-(3-oxoisoindolin-5-yl)picolinonitrile]"
9,44 nM,"COC(=O)CN1Cc2ccc(-c3nc(C#N)ccc3-c3cnn(CC4(C)CCCC4)c3)cc2C1=O [Example 34A, methyl 2-(6-(6-cyano-3-(1-((1-methylcyclopentyl)-methyl)-1H-pyrazol-4-yl)pyridin-2-yl)-1-oxoisoindolin-2-yl)acetate]"
10,9 nM,"CC1(Cn2cc(-c3ccc(F)nc3-c3ccc4c(c3)C(=O)N(C3CC3)C4)cn2)CCCC1 [Example 35, 2-cyclopropyl-6-(6-fluoro-3-(1-((1-methylcyclopentyl)methyl)-1H-pyrazol-4-yl)pyridin-2-yl)isoindolin-1-one]"
11,6 nM,"CN1Cc2ccc(-c3nc(F)ccc3-c3cnn(CC4(C)CCCC4)c3)cc2C1=O [Example 36, 6-(6-fluoro-3-(1-((1-methylcyclopentyl)methyl)-1H-pyrazol-4-yl)pyridin-2-yl)-2-methylisoindolin-1-one]"
12,7 nM,"CC1(Cn2cc(-c3ccc(F)nc3-c3ccc4c(c3)C(=O)NC4)cn2)CCCC1 [Example 37, 6-(6-fluoro-3-(1-((1-methylcyclopentyl)methyl)-1H-pyrazol-4-yl)pyridin-2-yl)isoindolin-1-one]"
